Experimental data reported in patent US20160130278A1 (TAISHO PHARMACEUTICAL CO., LTD, priority 2013, published 2016).

target: T1, human type 1 glycine transporter (GlyT1) (Homo sapiens, UniProt P48067); test: Glycine uptake inhibition experiment ([3H]glycine uptake); assay type: cell-based; settings: GlyT1
T1 construct: T98G cells (glioma cells) expressing human type 1 glycine transporter (GlyT1) were used
T1 sequence (P48067 1-706): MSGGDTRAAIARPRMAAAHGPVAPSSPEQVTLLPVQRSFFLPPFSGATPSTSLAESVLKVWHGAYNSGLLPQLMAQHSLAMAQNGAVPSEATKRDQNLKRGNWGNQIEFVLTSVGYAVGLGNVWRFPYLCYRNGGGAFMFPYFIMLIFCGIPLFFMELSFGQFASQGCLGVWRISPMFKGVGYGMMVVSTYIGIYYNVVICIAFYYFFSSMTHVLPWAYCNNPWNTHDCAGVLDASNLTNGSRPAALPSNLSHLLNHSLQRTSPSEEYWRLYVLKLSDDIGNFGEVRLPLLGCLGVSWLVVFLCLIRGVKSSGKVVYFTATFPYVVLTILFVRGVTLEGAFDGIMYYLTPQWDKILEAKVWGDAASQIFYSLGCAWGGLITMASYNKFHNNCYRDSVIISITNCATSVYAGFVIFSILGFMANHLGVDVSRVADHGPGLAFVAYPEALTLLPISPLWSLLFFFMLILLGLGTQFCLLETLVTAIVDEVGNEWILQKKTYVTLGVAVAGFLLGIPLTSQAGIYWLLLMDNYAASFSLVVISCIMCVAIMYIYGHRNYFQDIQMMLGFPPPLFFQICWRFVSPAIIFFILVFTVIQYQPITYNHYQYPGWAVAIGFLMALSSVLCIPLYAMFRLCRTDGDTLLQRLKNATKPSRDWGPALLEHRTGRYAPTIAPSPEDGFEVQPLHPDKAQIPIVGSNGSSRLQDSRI
In short: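 T98G glioma cells expressing human GlyT1 were pretreated 10 min with compound in HEPES buffer pH 7.4 (0.2% BSA), then incubated with compound plus 250 nM final [3H]glycine for 15 min at room temperature. Intracellular radioactivity was counted after NaOH lysis; 10 μM ALX5407 defined non-specific uptake. IC50 came from 10^−9–10^−5 M curves.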

| IC50 [nM] | Molecule |
| --- | --- |
| 920 | O=C(NC(c1cccc(Cl)c1F)C1(O)CCC(F)(F)CC1)c1cc(C(F)(F)F)ncc1Cl (single isomer, unassigned) [Compound 219, 5-chloro-N-[(3-chloro-2-fluorophenyl)(4,4-difluoro-1-hydroxycyclohexyl)methyl]-2-(trifluoromethyl)pyridine-4-carboxamide] |
| 140 | O=C(NC(c1cccc(Cl)c1)C1(O)CCCC1)c1ccnc(C(F)(F)F)c1Cl (single isomer, unassigned) [Compound 185, 3-chloro-N-[(3-chlorophenyl)(1-hydroxycyclopentyl)methyl]-2-(trifluoromethyl)pyridine-4-carboxamide] |
| 100 | O=C(NC(c1cccc(F)c1Cl)[C@]1(O)CC[C@@H](F)CC1)c1cccc(C(F)(F)F)c1Cl (single isomer, unassigned) [Compound 246, 2-chloro-N-[(2-chloro-3-fluorophenyl)(cis-4-fluoro-1-hydroxycyclohexyl)methyl]-3-(trifluoromethyl)benzamide] |
| 140 | O=C(NC(c1cccc(Cl)n1)[C@]1(O)CC[C@@H](F)CC1)c1ccc(C(F)(F)F)nc1Cl (single isomer, unassigned) [Compound 339, 2-chloro-N-[(6-chloropyridin-2-yl)(cis-4-fluoro-1-hydroxycyclohexyl)methyl]-6-(trifluoromethyl)pyridine-3-carboxamide] |
| 230 | O=C(NC(c1ccccc1F)[C@]1(O)CC[C@H](F)CC1)c1nccc(C(F)(F)F)c1Cl (single isomer, unassigned) [Compound 240, 3-chloro-N-[(trans-4-fluoro-1-hydroxycyclohexyl)(2-fluorophenyl)methyl]-4-(trifluoromethyl)pyridine-2-carboxamide] |
| 280 | CCn1cc(-c2cccc(C(NC(=O)c3c(Cl)ccc(C(F)(F)F)c3Cl)C3(O)CCC(F)(F)CC3)c2)cn1 (centres unmarked) [Compound 123, 2,6-dichloro-N-{(4,4-difluoro-1-hydroxycyclohexyl)[3-(1-ethyl-1H-pyrazol-4-yl)phenyl]methyl}-3-(trifluoromethyl)benzamide] |
| 300 | CCOc1cccc(C(NC(=O)c2nccc(C(F)(F)F)c2Cl)C2(O)CCCC2)c1 (centres unmarked) [Compound 87, 3-chloro-N-[(3-ethoxyphenyl)(1-hydroxycyclopentyl)methyl]-4-(trifluoromethyl)pyridine-2-carboxamide] |
| 670 | O=C(NC(c1cccc(F)c1Cl)[C@]1(O)CC[C@@H](F)CC1)c1c(Cl)cccc1C(F)(F)F (single isomer, unassigned) [Compound 306, 2-chloro-N-[(2-chloro-3-fluorophenyl)(cis-4-fluoro-1-hydroxycyclohexyl)methyl]-6-(trifluoromethyl)benzamide] |
| 3300 | CCn1cc(-c2cccc(C(NC(=O)c3cccc(C)c3Cl)C3(O)CCC(F)(F)CC3)c2)cn1 (single isomer, unassigned) [Compound 151, 2-chloro-N-{(4,4-difluoro-1-hydroxycyclohexyl)[3-(1-ethyl-1H-pyrazol-4-yl)phenyl]methyl}-3-methylbenzamide] |
| 3000 | O=C(NC(c1cccc(F)c1Cl)[C@]1(O)CC[C@@H](F)CC1)c1ccc(Cl)nc1-n1nccn1 (single isomer, unassigned) [Compound 370, 6-chloro-N-[(2-chloro-3-fluorophenyl)(cis-4-fluoro-1-hydroxycyclohexyl)methyl]-2-(2H-1,2,3-triazol-2-yl)pyridine-3-carboxamide] |
| 110 | O=C(NC(c1cccc(-c2cn[nH]c2)c1)C1(O)CCCC1)c1cccc(C(F)(F)F)c1Cl (centres unmarked) [Compound 9, 2-chloro-N-{(1-hydroxycyclopentyl)[3-(1H-pyrazol-4-yl)phenyl]methyl}-3-(trifluoromethyl)benzamide] |
| 100 | CS(=O)(=O)c1cc(C(F)(F)F)ccc1C(=O)NC(c1cccc(F)c1Cl)[C@]1(O)CC[C@@H](F)CC1 (single isomer, unassigned) [Compound 373, N-[(2-chloro-3-fluorophenyl)(cis-4-fluoro-1-hydroxycyclohexyl)methyl]-2-(methylsulfonyl)-4-(trifluoromethyl)benzamide] |
| 440 | O=C(NC(c1ccnc(Cl)c1)[C@]1(O)CC[C@@H](F)CC1)c1nccc(C(F)(F)F)c1Cl (single isomer, unassigned) [Compound 257] |
| 380 | O=C(NC(c1cccc(Cl)n1)C1(O)CCC(F)(F)CC1)c1ccnc(C(F)(F)F)c1Cl (single isomer, unassigned) [Compound 347, 3-chloro-N-[(6-chloropyridin-2-yl)(4,4-difluoro-1-hydroxycyclohexyl)methyl]-2-(trifluoromethyl)pyridine-4-carboxamide] |
| 140 | O=C(NC(c1cccc(F)n1)[C@]1(O)CC[C@@H](F)CC1)c1nccc(C(F)(F)F)c1Cl (single isomer, unassigned) [Compound 329, 3-chloro-N-[(cis-4-fluoro-1-hydroxycyclohexyl)(6-fluoropyridin-2-yl)methyl]-4-(trifluoromethyl)pyridine-2-carboxamide] |
| 250 | O=C(NC(c1ccccc1Cl)C1(O)CCC(F)(F)CC1)c1nccc(C(F)(F)F)c1Cl (centres unmarked) [Compound 103, 3-chloro-N-[(2-chlorophenyl)(4,4-difluoro-1-hydroxycyclohexyl)methyl]-4-(trifluoromethyl)pyridine-2-carboxamide] |
| 120 | O=C(NC(c1cccc(F)c1F)C1(O)CCC(F)(F)CC1)c1nccc(C(F)(F)F)c1Cl (single isomer, unassigned) [Compound 164, 3-chloro-N-[(4,4-difluoro-1-hydroxycyclohexyl)(2,3-difluorophenyl)methyl]-4-(trifluoromethyl)pyridine-2-carboxamide] |
| 4700 | 3,4-dichloro-N-[(2-chloro-3-fluorophenyl)(cis-4-fluoro-1-hydroxycyclohexyl)methyl]benzamide [Compound 252] |
| 99 | CC(C)n1cc(-c2cccc(C(NC(=O)c3nccc(C(F)(F)F)c3Cl)C3(O)CCC(F)(F)CC3)c2)cn1 (centres unmarked) [Compound 129, 3-chloro-N-[(4,4-difluoro-1-hydroxycyclohexyl){3-[1-(propan-2-yl)-1H-pyrazol-4-yl]phenyl}methyl]-4-(trifluoromethyl)pyridine-2-carboxamide] |
| 240 | O=C(NC(c1cccc(Cl)n1)[C@]1(O)CC[C@@H](F)CC1)c1ccc(C(F)(F)F)cc1Cl (single isomer, unassigned) [Compound 363, 2-chloro-N-[(6-chloropyridin-2-yl)(cis-4-fluoro-1-hydroxycyclohexyl)methyl]-4-(trifluoromethyl)benzamide] |
| 840 | CCn1cc(-c2cccc(C(NC(=O)c3cccc(C(F)(F)F)c3C)C3(O)CCC(F)(F)CC3)c2)cn1 (single isomer, unassigned) [Compound 150, N-{(4,4-difluoro-1-hydroxycyclohexyl)[3-(1-ethyl-1H-pyrazol-4-yl)phenyl]methyl}-2-methyl-3-(trifluoromethyl)benzamide] |
| 73 | O=C(NC(c1cccc(-c2ccccn2)c1)C1(O)CCC(F)(F)CC1)c1nccc(C(F)(F)F)c1Cl (single isomer, unassigned) [Compound 188, 3-chloro-N-{(4,4-difluoro-1-hydroxycyclohexyl)[3-(pyridin-2-yl)phenyl]methyl]-4-(trifluoromethyl)pyridine-2-carboxamide] |
| 130 | O=C(NC(c1cccc(F)c1Cl)C1(O)CCC(F)(F)CC1)c1ccnc(C(F)(F)F)c1Cl (single isomer, unassigned) [Compound 178, 3-chloro-N-[(2-chloro-3-fluorophenyl)(4,4-difluoro-1-hydroxycyclohexyl)methyl]-2-(trifluoromethyl)pyridine-4-carboxamide] |
| 280 | Cc1ccccc1C(NC(=O)c1nccc(C(F)(F)F)c1Cl)C1(O)CCCC1 (centres unmarked) [Compound 47, 3-chloro-N-[(1-hydroxycyclopentyl)(2-methylphenyl)methyl]-4-(trifluoromethyl)pyridine-2-carboxamide] |
| 150 | O=C(NC(c1cccc(F)n1)C1(O)CCC(F)(F)CC1)c1nccc(C(F)(F)F)c1Cl (single isomer, unassigned) [Compound 358, 3-chloro-N-[(4,4-difluoro-1-hydroxycyclohexyl)(6-fluoropyridin-2-yl)methyl]-4-(trifluoromethyl)pyridine-2-carboxamide] |
| 490 | O=C(NC(c1cc(Cl)ccn1)C1(O)CCC(F)(F)CC1)c1cc(C(F)(F)F)ncc1Cl (single isomer, unassigned) [Compound 348, 5-chloro-N-[(4-chloropyridin-2-yl)(4,4-difluoro-1-hydroxycyclohexyl)methyl]-2-(trifluoromethyl)pyridine-4-carboxamide] |
